From patent US20080280759A1, “6-(2-Fluoro-4-Alkoxyphenyl) Triazolopyrimidines, Their Preparation, Their Use For Controlling Harmful Fungi, and Compositions Comprising Them” (priority 2003, published 2008)

test system: Botrytis cinerea; experiment: Activity against gray mold on bell pepper leaves caused by Botrytis cinerea, protective application; assay type: in vivo; conditions: 250 ppm, sprayed the day before inoculation, assessed visually after 5 days, untreated plants 80% infected
Method: The active compounds were formulated separately as a stock solution with 0.25% by weight in acetone or DMSO. 1% by weight of the emulsifier Wettol EM 31 (wetting agent having emulsifying and dispersing action based on ethoxylated alkylphenols) was added to this solution. The stock solutions of the active compounds were diluted with water to the stated concentration. For examples 1 and 2, the active compounds were prepared as a stock solution with 25 mg of active compound which was made up to 10 ml using a mixture of acetone and/or DMSO and the emulsifier Uniperol® EL (wetting agent having emulsifying and dispersing action based on the ethoxylated alkylphenols) in a volume ratio of solvent/emulsifier of 99 to 1. The mixture was then made up with water to 100 ml. This stock solution was diluted with the solvent/emulsifier/water mixture described to the concentration of active compounds stated below. Bell pepper seedlings of the cultivar “Neusiedler Ideal Elite” were, after 2 to 3 leaves were well developed, sprayed to runoff point with an aqueous suspension having the concentration of active compounds stated below. The next day, the treated plants were inoculated with a spore suspension of Botrytis cinerea which contained 1.7×10^6 spores/ml in a 2% aqueous biomalt solution. The test plants were then placed in a dark climatized chamber at 22 to 24° C. and high atmospheric humidity. After 5 days, the extent of the fungal infection on the leaves could be determined visually in %.

Row | Compound | fungal infection on the leaves
1 | 5-methoxy-6-(2,6-difluoro-4-methoxyphenyl)-7-(4-methyl-piperidinyl)-1,2,4-triazolo[1,5a]pyrimidine [Compound I-3] | no infection
2 | COc1cc(F)c(-c2c(C#N)nc3ncnn3c2N2CCC(C)CC2)c(F)c1 [Compound I-1, 5-cyano-6-(2,6-difluoro-4-methoxyphenyl)-7-(4-methyl-piperidinyl)-1,2,4-triazolo[1,5a]pyrimidine] | no infection
3 | COc1cc(F)c(-c2c(C)nc3ncnn3c2N2CCC(C)CC2)c(F)c1 [Compound I-2, 5-methyl-6-(2,6-difluoro-4-methoxyphenyl)-7-(4-methyl-piperidinyl)-1,2,4-triazolo[1,5a]pyrimidine] | no infection
